Experimental data from patent publication US20210278408A1, “METHODS OF TREATMENT OF CANCER WITH SUBSTITUTED PYRROLE AND PYRAZOLE COMPOUNDS AND DIAGNOSIS OF CANCERS SUSCEPTIBLE TO TREATMENT WITH SUBSTITUTED PYRROLE AND PYRAZOLE COMPOUNDS” (Bantam Pharmaceutical, LLC, priority 2018, published 2021).

Key:
[1] = system: SK-MEL-28; assay: Anti-proliferative activity, CellTiter-Glo, 72 hours: SK-MEL-28; format: cell-based, human; details: Homo sapiens, SK-MEL-28 (melanoma), Cell-Titre-Glo
Procedure: (§1) Anti-proliferative activity of BTM compounds. The anti-proliferative activities of Compound A197 and Compound B19 were compared to 4EGI-1 (a known cancer cell growth inhibitor) in a panel of 99 tumor lines. Methods: A panel of 96 tumor and 3 normal cell lines were tested for sensitivity to the test compound. The cell lines were cultured in standard media and pipetted into 96-well plates at the required plating densities. The cells were acclimated for 24 hours prior to compound testing. Compound was prepared as a stock of 20 mM in DMSO. To prepare dose response curves compound was serially diluted in DMSO and dispensed into the plate wells using a Tecan D300e digital dispenser. The final DMSO concentration was 0.15%. After 72 hours of incubation cell number was determined using the CellTiter-Glo® protocol according to the manufacturers instructions (Promega). In this assay, ATP is measured as a surrogate of cell number. The activity of the compound is determined by comparing untreated cells with treated cells and calculating the % of signal retained. Compound activity is measured as an EC50 of maximum level of efficacy and the two are used to compute an activity area. The table below provides a comparison of activity in a data sample.

[2] = system: HT-1080; assay: Anti-proliferative activity, CellTiter-Glo, 72 hours: HT-1080; format: cell-based, human; details: Homo sapiens, HT-1080 (fibrosarcoma), Cell-Titre-Glo
Procedure: as §1

[3] = Single rising-dose mouse pharmacokinetics (PK) experiment; format: in vivo, CD-1 mice; details: for PK properties: mouse PK data
Procedure: FIG. 9 is a graph of mouse pharmacokinetics of a single rising dose PK of Compound A197 in female CD-1 mice. Compound was administered orally with the indicated dose. Blood was drawn by tail-bleed at the appropriate times and Compound A197 plasma levels determined by LC-MS. All values, mean±SD (n=3 mice per group).
A single rising-dose mouse pharmacokinetics (PK) experiment was performed at PGP-52 TI 10, 20, 40, 150 and 300 mg/kg Compound A197. Female CD-1 mice (20-30 grams in weight) were dosed by oral gavage or by intravenous injection with A197 dissolved in 1% NMP, 0.3% Tween-80 in 0.5% methylcellulose at a dose volume of 10 ml/kg. Following compound dosing, blood was collected by tail vein bleed into K2EDTA tubes at 30 minutes, 1, 3, 5, 7, 24 an 48 hrs following dosing. Plasma (5 μL) from A197 dosed animals was acidified with […] and 1% ammonium formate in methanol to precipitate protein and delipidate plasma. The material was centrifuged at 1000× and a 120 μL sample of the supernatant was then dried under vacuum. The deproteinated and delipidated residue was resuspended in 200 μL of 1% ammonium formate in methanol and the centrifugation and drying process repeated. The dried material is then resuspended in 100 μL of a mixture of 2 parts methanol: 1 part acetonitrile: 1 part water. A 10 μL sample of this material is then injected onto a Xbridge C18 2.5 μM, 3×30 mm, XP column attached to a TSQ Vantage LC/MS system for quantitation.

SMILES | IC50 [1] | IC50 [2] | PK properties [3] | dose proportionality ([3]; single rising dose 10, 20, 40, 150 and 300 mg/kg, oral, female CD-1 mice, plasma by LC/MS)
COC(=O)c1c(-c2cccc(F)c2)c(C)nn1-c1nc(C2=CCC(C(F)(F)F)CC2)c(SC(C)C)s1 (single isomer, unassigned) [Compound B19, methyl 4-(3-fluorophenyl)-1-(5-(isopropylthio)-4-(4-(trifluoromethyl)cyclohex-1-en-1-yl)thiazol-2-yl)-3-methyl-1H-pyrazole-5-carboxylate] | > 30000 nM | 528 nM | drug-like PK properties suitable for once daily dosing | 
Cc1nn(-c2nc(-c3ccc(C(F)(F)F)cc3)c(SC(C)C)s2)c(C(=O)O)c1-c1cccc(F)c1 [Compound A197, 4-(3-fluorophenyl)-1-(5-(isopropylthio)-4-(4-(trifluoromethyl)phenyl)thiazol-2-yl)-3-methyl-1H-pyrazole-5-carboxylic acid] | > 30000 nM | 725 nM | drug-like PK properties suitable for once daily dosing | dose proportionality was observed up to 300 mg/kg
